Assays:
Type in all cases: in vivo
[1] = test system: Hydroxysteroid sulfotransferase A (Androsterone-sulfating sulfotransferase); test: 2-DE proteome analysis of rat hippocampus: Hydroxysteroid sulfotransferase A; conditions: rat hippocampus cytosolic extract, 10 mg/kg i.p. daily 14 days, vs control; gel spot 79
Method: (§1) Animal dosing. Adult male Sprague Dawley rats weighing 230-320 g were housed with ad libitum access to food and water. After 1 week of habituation, rats were administered either an antidepressant or vehicle alone. The following drugs were administered intraperitoneally (i.p.): fluoxetine (10 mg/kg daily), venlafaxine (10 mg/kg daily) or vehicle alone (1 ml/kg normal saline daily) for 14 days (n=3 rats per group).
(§2) Sample preparation and cytosolic protein extraction. The animals were euthanized and hippocampi were rapidly dissected from the whole brain. Samples from each treatment group were pooled and stored at −85° C. Cytosolic extracts were prepared using the universal extraction kit from Sigma (prot-two) as follows: soluble cytoplasmic extraction reagent (S2688) was added to the hippocampal tissue (10 ml/250 mg wet weight). […]
(§3) Two-dimensional gel electrophoresis. […] Molecular masses were determined by running standard protein markers (Genomic Solutions Inc.), covering the range 10-200 kDa as well as internal verification via landmark proteins within the gel. […]
(§4) Protein fixation, silver staining and 2-D gel comparisons. […] Protein spots were outlined (first automatically and then manually) and quantified using the HT analyzer v2.2 software (Genomic Solutions Inc.). The software calculated the relative spot volume of the proteins compared with the total amount of protein in the gel. […]

[2] = test system: Ras-related protein RAB-4A; test: 2-DE proteome analysis of rat hippocampus: RAB-4A; conditions: rat hippocampus cytosolic extract, 10 mg/kg i.p. daily 14 days, vs control; gel spot 90 (mix)
Method: as §1, §2, §3, §4

[3] = test system: Transcription factor BTEB 1; test: 2-DE proteome analysis of rat hippocampus: BTEB 1; conditions: rat hippocampus cytosolic extract, 10 mg/kg i.p. daily 14 days, vs control; gel spot 19
Method: as §1, §2, §3, §4

[4] = test system: L-Lactate Dehydrogenase B Chain; test: 2-DE proteome analysis of rat hippocampus: L-Lactate Dehydrogenase B Chain; conditions: rat hippocampus cytosolic extract, 10 mg/kg i.p. daily 14 days, vs control; gel spot 23
Method: as §1, §2, §3, §4

[5] = test system: Lymphotactin [precursor] (Cytokine SCM-1; Small inducible cytokine C1); test: 2-DE proteome analysis of rat hippocampus: Lymphotactin; conditions: rat hippocampus cytosolic extract, 10 mg/kg i.p. daily 14 days, vs control; gel spot 80
Method: as §1, §2, §3, §4

[6] = test system: Adenine Phosphoribosyltransferase (APRT); test: 2-DE proteome analysis of rat hippocampus: APRT; conditions: rat hippocampus cytosolic extract, 10 mg/kg i.p. daily 14 days, vs control; gel spot 57
Method: as §1, §2, §3, §4

[7] = test system: Dihydropyrimidinase Related Protein-2 (DRP-2; CRMP-2; TOAD-64); test: 2-DE proteome analysis of rat hippocampus: DRP-2/CRMP-2; conditions: rat hippocampus cytosolic extract, 10 mg/kg i.p. daily 14 days, vs control; gel spot 1
Method: as §1, §2, §3, §4

[8] = test system: Pyruvate Dehydrogenase E1 component beta subunit, mitochondrial (precursor); test: 2-DE proteome analysis of rat hippocampus: Pyruvate Dehydrogenase E1 beta; conditions: rat hippocampus cytosolic extract, 10 mg/kg i.p. daily 14 days, vs control; gel spot 26
Method: as §1, §2, §3, §4

[9] = test system: Glutathione S-Transferase Yb3; test: 2-DE proteome analysis of rat hippocampus: Glutathione S-Transferase Yb3; conditions: rat hippocampus cytosolic extract, 10 mg/kg i.p. daily 14 days, vs control; gel spot 56
Method: as §1, §2, §3, §4

[10] = test system: Antioxidant protein 2 (calcium-independent PLA2); test: 2-DE proteome analysis of rat hippocampus: Antioxidant protein 2; conditions: rat hippocampus cytosolic extract, 10 mg/kg i.p. daily 14 days, vs control; gel spot 51
Method: as §1, §2, §3, §4

Alpha-enolase = test: 2-DE proteome analysis of rat hippocampus: Alpha-enolase; conditions: rat hippocampus cytosolic extract, 10 mg/kg i.p. daily 14 days, vs control; for Fold change, Alpha-enolase (spot 8): gel spot 8; for Fold change, Alpha-enolase (spot 9): gel spot 9; for Fold change, Alpha-enolase (spot 10): gel spot 10
Method: as §1
Sample preparation and cytosolic protein extraction. The animals were euthanized and hippocampi were rapidly dissected from the whole brain. Samples from each treatment group were pooled and stored at −85° C. Cytosolic extracts were prepared using the universal extraction kit from Sigma (prot-two) as follows: soluble cytoplasmic extraction reagent (S2688) was added to the hippocampal tissue (10 ml/250 mg wet weight). Samples were sonicated (4 times at 30 seconds) and centrifuged for 45 minutes (14,000 g) at 4° C. The supernatant was decanted and stored on ice. Ten milliliters of the soluble cytoplasmic extraction reagent was added to the remaining pellet and the sonication and centrifugation steps were repeated. The supernatant was decanted, combined with the previous supernatant and SpeedVac (Savant Instruments, Halbrook, N.Y.) dried. Each sample was dissolved in 2 ml of 2-D lysis buffer (6 M urea, 2 M thiourea, 4% CHAPS, 40 mM Tris, 65 mM dithiothreitol (DTT), 1 mM sodium vanadate, 1 mM sodium fluoride, protease inhibitor tablet (#1836145, Roche)), concentrated and desalted (Centricon tube; 6500 rpm) at 10° C. for 12 hours.
Two-dimensional gel electrophoresis. First dimensional isoelectric focusing (IEF) was performed on 18 cm IPG strips (pH 4-7) using an IPGphor unit (Amersham Pharmacia). Each strip was rehydrated for 16 hours with sample lysate (˜500 ug) in a final volume of 400 uL of IEF solution (10 uL of bromophenol blue (0.25% w/v); 2 uL of Ampholyte (pH 4-7, Amersham #17-6000-86); 2-D lysis buffer). […] The strips were then subjected to a two-step equilibration (50 mM Tris; 2% SDS; 30% glycerol) in (A) 0.5% DTT (Bio-Rad) and (B) 4.5% iodoacetamide (Sigma) buffers before proceeding to SDS-PAGE. Separation in the second dimension was performed on 10% SDS polyacrylamide gels (180×1.5 mm) at a constant voltage of 500 V at 15° C. for 28 hours using an Investigator 2D electrophoresis unit (Genomic Solutions Inc., MA) which accommodated 10 gels. Molecular masses were determined by running standard protein markers (Genomic Solutions Inc.), covering the range 10-200 kDa as well as internal verification via landmark proteins within the gel. The pl values were used as given by the supplier of the immobilized pH-gradient strips.
Protein fixation, silver staining and 2-D gel comparisons. Silver staining of the gels was performed using a silver stain kit (gs#80-0183; Genomic Solutions). All steps were performed at room temperature, gently agitating the trays on a rotary shaker at low speed. Stained gels were scanned using an 8-bit ccd camera and the Investigator G3 ProPic system (Genomic Solutions Inc.). Protein spots were outlined (first automatically and then manually) and quantified using the HT analyzer v2.2 software (Genomic Solutions Inc.). The software calculated the relative spot volume of the proteins compared with the total amount of protein in the gel. The HT analyzer software was used to cross-match (‘synchronize’) and identify protein spots between control gels and drug treatment gels that were different in integrated intensity by at least a factor of 1.5 versus control. […] This population of spots were automatically picked from each gel with the ProPic system for in-gel trypsin digestion.
Enzymatic digestion of protein spots. Silver-stained protein spots were automatically excised and transferred to a 96-well polypropylene microtiter plate. Each excised spot was de-stained to remove the silver ions and enhance sensitivity with 30 mM potassium ferricyanide and 100 mM sodium thiosulfate (1:1 ratio). […]

[11] = test system: Fatty Acid-Binding Protein, Heart (H-FABP); test: 2-DE proteome analysis of rat hippocampus: H-FABP; conditions: rat hippocampus cytosolic extract, 10 mg/kg i.p. daily 14 days, vs control; gel spot 89
Method: as §1, §2, §3, §4

[12] = test system: GLIA maturation factor beta (GMF-β); test: 2-DE proteome analysis of rat hippocampus: GMF-β; conditions: rat hippocampus cytosolic extract, 10 mg/kg i.p. daily 14 days, vs control; gel spot 67
Method: as §1, §2, §3, §4

[13] = test system: Hippocampal Cholinergic Neurostimulating peptide (PEBP; HCNP; Raf kinase inhibitor protein); test: 2-DE proteome analysis of rat hippocampus: HCNP; conditions: rat hippocampus cytosolic extract, 10 mg/kg i.p. daily 14 days, vs control; gel spot 60
Method: as §1, §2, §3, §4

Compound	Fold change, Hydroxysteroid sulfotransferase A [1]	Fold change, Ras-related protein RAB-4A [2]	Fold change, Transcription factor BTEB 1 [3]	Fold change, L-Lactate Dehydrogenase B Chain [4]	Fold change, Lymphotactin [precursor] [5]	Fold change, Adenine Phosphoribosyltransferase (APRT) [6]	Fold change, Dihydropyrimidinase Related Protein-2 (DRP-2; CRMP-2; TOAD-64) [7]	Fold change, Pyruvate Dehydrogenase E1 component beta subunit [8]	Fold change, Glutathione S-Transferase Yb3 [9]	Fold change, Antioxidant protein 2 [10]	Fold change, Alpha-enolase (spot 8) (Alpha-enolase)	Fold change, Alpha-enolase (spot 9) (Alpha-enolase)	Fold change, Alpha-enolase (spot 10) (Alpha-enolase)	Fold change, Fatty Acid-Binding Protein, Heart (H-FABP) [11]	Fold change, GLIA maturation factor beta (GMF-β) [12]	Fold change, Hippocampal Cholinergic Neurostimulating peptide (PEBP; HCNP) [13]
CNCCC(Oc1ccc(C(F)(F)F)cc1)c1ccccc1 (centres unmarked) [Fluoxetine, fluoxetine]	2 Fold change	1.5 Fold change	1.6 Fold change	2.5 Fold change	2 Fold change	5.8 Fold change	2.6 Fold change	3.2 Fold change	0.5 Fold change	1.6 Fold change	3.4 Fold change	5 Fold change	3 Fold change	1.6 Fold change	3 Fold change	1.9 Fold change
COc1ccc(C(CN(C)C)C2(O)CCCCC2)cc1 (centres unmarked) [Venlafaxine, venlafaxine]	2 Fold change	1.5 Fold change	2.3 Fold change	2.5 Fold change	1.9 Fold change	3 Fold change	4.1 Fold change	2.6 Fold change	0.5 Fold change	1.7 Fold change	2 Fold change	4.8 Fold change	4.1 Fold change	2.1 Fold change	2.7 Fold change	2 Fold change

From US20080293583A1, “Methods for diagnosing mood disorders” (Wyeth, priority 2003, published 2008)
